Literature values, collected in patent publication US20160166510A1, “STABILIZED PROLONGED RELEASE PHARMACEUTICAL COMPOSITION COMPRISING ATYPICAL ANTIPSYCHOTIC” (INVENTIA HEALTHCARE PRIVATE LIMITED, priority 2010, published 2016).
Where two headings read alike, the source gives them in different places.

Solubility (in 0.1 N HCl): sparingly soluble
Solubility (in methylene chloride): sparingly soluble
Solubility (in water): practically insoluble
Structure (SMILES): Cc1nc2n(c(=O)c1CCN1CCC(c3noc4cc(F)ccc34)CC1)CCCC2O (stereo not drawn) [Paliperidone]
